Test results: patent publication EP2527322A1, “Carbamyl alkylphenyl disulfide derivatives and their therapeutic uses” (NOSCIRA, S.A., priority 2011, dated 2012)

Biological target: T1, human recombinant GSK3β (Homo sapiens, UniProt P49841)
T1 construct: 6His (N); purchased Millipore (Billerica, MA, USA)
Assay: GSK-3β enzymatic assay (Z'-LYTE FRET)
Format: biochemical
Conditions: 2 nM enzyme, 12.5 µM ATP, 2 µM substrate peptide, 60 min incubation at room temperature; read-out: GSK3β inhibition average EC50
Method: The enzymatic activity of GSK3β was determined with a commercial system based on the Z'-LYTE® technology, available from Invitrogen Life Technologies (Carlsbad, CA, USA), using human recombinant GSK3β (N-terminal 6His-tagged recombinant enzyme with an H350L mutation) from Millipore (Billerica, MA, USA) as the enzyme source. This technology utilizes the fluorescence resonance energy transfer ("FRET") process between fluorescein and coumarin. The assay principle is based on the differential sensitivity of phosphorylated and non-phosphorylated peptide to proteolytic cleavage, which precludes the energy transfer process between the two fluorophores attached to both sides of the cleavage site. […] The assay is performed in 384-well black plates, in a final volume of 10 µl, with 2 nM enzyme concentration in 50 mM Hepes pH 7.5, 50 mM MgCl2, 1 mM EGTA and 0.05% Brij-35, using 12.5 µM ATP and 2 µM substrate peptide. The latter is a synthetic peptide, provided by Invitrogen under the commercial name "Ser/Thr 9 peptide", and it is based upon the sequence of a GSK3β substrate protein (glycogen synthase I) containing Ser-641. The peptide is labeled at both ends with fluorescein and coumarin. The assay is carried out in the presence of different concentrations of the tested compound, at a final 1% (v/v) DMSO concentration. After a 60 min incubation at room temperature, 5 µl of a commercial protease solution (sold by the same vendor in the assay kit) is added and a subsequent 1h incubation at room temperature is performed, before adding 5 µl of a suitable "stop solution", also provided by the vendor in the kit. After that, fluorescence intensity is recorded, monitoring emission at both 445 and 520 nm, upon excitation at 400 nm. An emission ratio is finally calculated, using the quotient among the emission at 445 nm divided by that at 520 nm.
The emission ratio of each tested sample is normalized to that of the control wells, so that for every compound concentration the percentage of inhibition is calculated by using the following equation: %Inhibition = 100⋅(E-S)/(E-B) [formula] wherein "S" is the emission ratio of the sample being considered, "E" is the average emission ratio of wells, including enzyme in the absence of inhibitors, and "B" is the average emission ratio of wells without enzyme. The inhibition values obtained at every compound concentration are finally used to calculate the EC50 of the tested compound, this parameter being the concentration of the compound which causes 50% of inhibition. For that purpose, the data were fitted to a classical 4-parameters isotherm equation using the nonlinear regression function of GraphPad™ Prism 5.0 (GraphPad Software Inc.). Such equation is described below: % Inhibition = L + (H-L)/(1 + (((EC50)/(C)))^n) [formula] wherein "L" is the lower asymptote of the theoretical sigmoidal curve, "H" is the higher asymptote, "C" is the concentration of compound and "n" is the Hill coefficient.

T1 sequence (P49841 whole entry): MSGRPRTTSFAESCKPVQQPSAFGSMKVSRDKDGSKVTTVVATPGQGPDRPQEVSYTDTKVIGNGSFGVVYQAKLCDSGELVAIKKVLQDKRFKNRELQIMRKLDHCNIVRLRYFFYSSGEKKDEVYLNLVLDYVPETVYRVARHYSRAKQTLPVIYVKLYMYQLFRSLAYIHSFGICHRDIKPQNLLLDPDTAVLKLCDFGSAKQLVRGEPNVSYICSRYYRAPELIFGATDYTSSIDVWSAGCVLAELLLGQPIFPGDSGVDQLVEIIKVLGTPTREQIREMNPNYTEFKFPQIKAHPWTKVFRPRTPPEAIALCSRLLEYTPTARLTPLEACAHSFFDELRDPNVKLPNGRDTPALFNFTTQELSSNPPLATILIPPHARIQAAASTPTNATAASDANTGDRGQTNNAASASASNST

| SMILES | EC50 |
| --- | --- |
| COC(=O)CN(C)C(=O)SSCc1ccccc1 [Compound 1, [Methyl-(4-phenyl-2,3-dithia-butyryl)-amino]-acetic acid methyl ester] | 290 nM |
| CCOC(=O)CNC(=O)SSCc1ccccc1 [Compound 2, (4-Phenyl-2,3-dithia-butyrylamino)-acetic acid ethyl ester] | 460 nM |
| CCOC(=O)[C@H](Cc1ccccc1)NC(=O)SSCc1ccccc1 [Compound 3, (2S) 3-Phenyl-2-(4-phenyl-2,3-dithia-butyrylamino)-propionic acid ethyl ester] | 3900 nM |
| CCOC(=O)[C@H](Cc1ccc(O)cc1)NC(=O)SSCc1ccccc1 [Compound 4, (2S) 3-(4-Hydroxy-phenyl)-2-(4-phenyl-2,3-dithia-butyrylamino)-propionic acid ethyl ester] | 1500 nM |
| CCOC(=O)[C@H](CC(C)C)NC(=O)SSCc1ccccc1 [Compound 5, (2S) 4-Methyl-2-(4-phenyl-2,3-dithia-butyrylamino)-pentanoic acid ethyl ester] | 14000 nM |
| CCOC(=O)CCNC(=O)SSCc1ccccc1 [Compound 7, 3-(4-Phenyl-2,3-dithia-butyrylamino)-propionic acid ethyl ester] | 910 nM |
| CCOC(=O)CC[C@H](NC(=O)SSCc1ccccc1)C(=O)OCC [Compound 8, (2S) 2-(4-Phenyl-2,3-dithia-butyrylamino)-pentanedioic acid diethyl ester] | 6800 nM |
| CCOC(=O)[C@H](C)NC(=O)SSCc1ccccc1 [Compound 9, (2S) 2-(4-Phenyl-2,3-dithia-butyrylamino)-propionic acid ethyl ester] | 5400 nM |
| COC(=O)CC(NC(=O)SSCc1ccccc1)C(=O)OC (centres unmarked) [Compound 10] | 8700 nM |
| COC(=O)[C@@H](Cc1c[nH]c2ccccc12)NC(=O)SSCc1ccccc1 [Compound 11] | 3300 nM |
| CCOC(=O)CN(Cc1ccccc1)C(=O)SSCc1ccccc1 [Compound 12] | 260 nM |
| CCOC(=O)CN(CC(=O)OCC)C(=O)SSCc1ccccc1 [Compound 13] | 220 nM |
| COC(=O)[C@@H]1CCCN1C(=O)SSCc1ccccc1 [Compound 14] | 130 nM |
| COC(=O)C(Cc1ccccc1)NC(=O)SSCc1ccccc1 (centres unmarked) [Compound 16] | 1300 nM |
| O=C(SSCc1ccccc1)N1C(=O)c2ccccc2C1=O [Compound 17] | 470 nM |
| CN(C(=O)SSCc1ccccc1)C(=O)c1ccccc1 [Compound 18] | 10000 nM |

System: phosphorylation at the Ser-396 residue of Tau protein in human neuroblastoma SH-SY5Y cells
Assay: Cellular assay: Tau Ser-396 phosphorylation by ELISA in SH-SY5Y cells
Format: cell-based
Conditions: 18 h incubation at 37°C, 1% (v/v) DMSO, read-out: pSer396-Tau average EC50
Method: The effect of the compound in cells is determined by monitoring the level of phosphorylation at the Ser-396 residue of Tau protein in human neuroblastoma SH-SY5Y cells. Cells are grown in 96-well plates: 30,000 cells per well in a volume of 100 µl of 1:1 MEM:Ham's F12 medium including 10% (v/v) fetal bovine serum, 100 U/ml penicillin, 100 µg/ml streptomycin and 1% (v/v) 100-fold concentrated commercial stock of non-essential aminoacids (Gibco, Carlsbad, CA, USA), and incubated at 37°C during 24 h. Then, the corresponding amount of test compound is added to the wells to reach the desired concentration in 1% (v/v) DMSO. […] 60 µl of this mixture is then placed in an empty 96-well plate and the levels of Ser-396 phosphorylation are determined using a commercial ELISA kit (Biosource, Carlsbad, CA, USA), following manufacturer's instructions. The levels of phosphorylation are expressed as percentage values, after normalizing them to those in untreated cells and those values are used to calculate EC50s, as described above for GSK-3.

| SMILES | EC50 |
| --- | --- |
| COC(=O)CN(C)C(=O)SSCc1ccccc1 [Compound 1, [Methyl-(4-phenyl-2,3-dithia-butyryl)-amino]-acetic acid methyl ester] | 4200 nM |
